According to US4440764A, “Water soluble esters of steroid-oxazole and pharmaceutical compositions containing them” (Gruppo Lepetit S.p.A., priority 1980, dated 1984):

Columns and labels:
Assay type in all cases: in vivo
endotoxin shock = experiment: protection against endotoxin shock in mice; conditions: Mus musculus, sc
From the text: (§1) In the protection against anaphylactic shock and endotoxin shock in mice, the following results have been obtained: […]

anaphylactic shock = experiment: protection against anaphylactic shock in mice; conditions: Mus musculus, ip
From the text: as §1

[1] = tested on: hepatic neoglycogenetic activity; experiment: hepatic neoglycogenetic activity in adrenalectomized rats
Nystatin-induced oedema = Nystatin-induced oedema test (i.v.); conditions: antiinflammatory equivalent doses, at the 48th, 72nd, and 96th hours, vs prednisolone hemisuccinate and hydrocortisone hemisuccinate
[2] = tested on: carrageenin-induced oedema; experiment: carrageenin-induced oedema test in rats (i.v.)
[3] = tested on: equilibrium sodium-potassium; experiment: mineralocorticoid effects in the adrenalectomized rats; conditions: at doses which provide the same pharmacological effect, vs prednisolone or hydrocortisone hemisuccinate
[4] = relative to hydrocortisone hemisuccinate
[5] = relative to prednisolone hemisuccinate

| Compound | ED50 (endotoxin shock) [mg/kg] | ED50 (anaphylactic shock) [mg/kg] | hepatic neoglycogenetic activity, times more potent than hydrocortisone hemisuccinate [1, 4] [times] | hepatic neoglycogenetic activity, times more potent than prednisolone hemisuccinate [1, 5] | duration of antiphlogistic activity versus reference compounds (Nystatin-induced oedema) | times more active than hydrocortisone hemisuccinate [2, 4] [times] | times more active than prednisolone hemisuccinate [2, 5] [times] | mineralocorticoid effects (effect on equilibrium sodium-potassium) [3] |
| --- | --- | --- | --- | --- | --- | --- | --- | --- |
| C[C@]12C=CC(=O)C=C1CC[C@@H]1[C@@H]2[C@@H](O)C[C@@]2(C)[C@H]1CC[C@]2(O)C(=O)COC(=O)CCC(=O)O [Prednisolone hemisuccinate, prednisolone hemisuccinate] | 50.5 | 35.5 |  |  |  |  |  |  |
| CC12CCC(=O)C=C1CCC1C2C(O)CC2(C)C1CCC2(O)C(=O)COC(=O)CCC(=O)O (stereo not drawn) [Hydrocortisone hemisuccinate, hydrocortisone hemisuccinate] | 180 | 143 |  |  |  |  |  |  |
| CC1=NC2(C(=O)COC(=O)CCC(=O)O)C(CC3C4CCC5=CC(=O)C=CC5(C)C4C(O)CC32C)O1 (stereo not drawn) [Deflazacort hemisuccinate, 11β,21-dihydroxy-2'-methyl-5'H-pregna-1,4-dieno[17,16-d]oxazole-3,20-dione-21-hemisuccinate] | 31 | 22 | ~40 | about 5 times | longer lasting antiphlogistic activity than the reference compounds | 142 | 15 | affects the equilibrium sodium-potassium much less than prednisolone or hydrocortisone hemisuccinate |
